Measured values as given in ChEMBL document CHEMBL4665653, “VU6005806/AZN-00016130, an advanced M positive allosteric modulator (PAM) profiled as a potential preclinical development candidate” (Bioorg Med Chem Lett, 2019).

Experiments:
[1] = target: T1, Muscarinic acetylcholine receptor M4 (Homo sapiens) (UniProt P08173); assay: Positive allosteric modulation of human M4 receptor/Gqi5 in presence of EC20 acetylcholine by calcium mobilization assay relative to acetylcholine; format: functional; details: filed as positive allosteric modulator
T1 sequence (whole entry): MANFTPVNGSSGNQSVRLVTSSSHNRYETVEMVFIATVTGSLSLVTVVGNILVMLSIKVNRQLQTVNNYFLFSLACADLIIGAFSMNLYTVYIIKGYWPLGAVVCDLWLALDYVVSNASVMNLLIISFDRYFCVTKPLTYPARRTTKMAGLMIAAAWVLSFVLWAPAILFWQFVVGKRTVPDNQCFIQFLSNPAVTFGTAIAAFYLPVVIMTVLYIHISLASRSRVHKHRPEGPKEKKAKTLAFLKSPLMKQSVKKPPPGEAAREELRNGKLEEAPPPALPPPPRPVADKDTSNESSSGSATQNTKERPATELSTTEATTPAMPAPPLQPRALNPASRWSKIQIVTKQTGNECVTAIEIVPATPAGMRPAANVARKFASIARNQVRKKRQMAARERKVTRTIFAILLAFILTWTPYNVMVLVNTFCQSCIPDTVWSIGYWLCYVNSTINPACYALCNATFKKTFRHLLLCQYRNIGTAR

[2] = Fraction unbound in rat brain; format: ADME, tissue-based
[3] = Unbound brain-to-plasma concentration ratio in Sprague-Dawley rat at 0.1 to 0.2 mg/kg, iv measured after 0.25 hrs; format: ADME, organism-based; details: dose 0.1-0.2 mg/kg, read-out: K(p,uu,brain)
[4] = Positive allosteric modulation of cynomolgus monkey M4 receptor; design: species or system Macaca fascicularis
[5] = target: Muscarinic acetylcholine receptor M1 (Rattus norvegicus, UniProt P08482); assay: Positive allosteric modulation of rat M1 receptor
Chain of Muscarinic acetylcholine receptor M1 (P08482 whole entry): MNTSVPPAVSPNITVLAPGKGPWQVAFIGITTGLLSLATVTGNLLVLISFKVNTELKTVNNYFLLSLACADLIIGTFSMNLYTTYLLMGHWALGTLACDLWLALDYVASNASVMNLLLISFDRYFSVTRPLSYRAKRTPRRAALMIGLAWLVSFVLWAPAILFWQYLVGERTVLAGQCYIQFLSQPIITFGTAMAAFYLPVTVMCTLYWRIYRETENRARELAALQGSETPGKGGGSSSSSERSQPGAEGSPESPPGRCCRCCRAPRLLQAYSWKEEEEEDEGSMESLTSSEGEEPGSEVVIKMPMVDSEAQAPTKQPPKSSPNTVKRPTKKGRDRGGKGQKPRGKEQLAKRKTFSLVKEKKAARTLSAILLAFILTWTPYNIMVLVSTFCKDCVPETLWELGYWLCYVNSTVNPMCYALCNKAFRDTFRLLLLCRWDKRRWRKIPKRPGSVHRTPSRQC

[6] = target: Muscarinic acetylcholine receptor M5 (Rattus norvegicus, UniProt P08911); assay: Positive allosteric modulation of rat M5 receptor
Rattus norvegicus [7] = assay: Reversal of amphetamine-induced hyperlocomotion in rat at 3 mg/kg, po relative to control; format: functional
Rattus norvegicus [8] = assay: Reversal of amphetamine-induced hyperlocomotion in rat at 0.56 mg/kg, po relative to control; format: functional
[9] = Brain to plasma permeability coefficient, Kp in Sprague-Dawley rat at 0.1 to 0.2 mg/kg, iv measured after 1.5 hrs; format: ADME, organism-based; details: dose 0.1-0.2 mg/kg
[10] = target: Beta-1 adrenergic receptor (Homo sapiens) (UniProt P08588); assay: Displacement of [125I]Cyanopindolol from recombinant full length human beta1 adrenoceptor expressed in CHO-K1 cells assessed as residual binding level for radioligand at 10 uM after 120 mins by radiometric scintillation analysis relative to control; format: cell-based
[11] = target: Alpha-1D adrenergic receptor (Homo sapiens) (UniProt P25100); assay: Displacement of [3H]-Prazosin from recombinant full length human adrenergic alpha 1D receptor assessed as residual binding level for radioligand at 10 uM incubated for 60 mins by radiometric scintillation analysis relative to control
Chain of Alpha-1D adrenergic receptor (Homo sapiens) (P25100 whole entry): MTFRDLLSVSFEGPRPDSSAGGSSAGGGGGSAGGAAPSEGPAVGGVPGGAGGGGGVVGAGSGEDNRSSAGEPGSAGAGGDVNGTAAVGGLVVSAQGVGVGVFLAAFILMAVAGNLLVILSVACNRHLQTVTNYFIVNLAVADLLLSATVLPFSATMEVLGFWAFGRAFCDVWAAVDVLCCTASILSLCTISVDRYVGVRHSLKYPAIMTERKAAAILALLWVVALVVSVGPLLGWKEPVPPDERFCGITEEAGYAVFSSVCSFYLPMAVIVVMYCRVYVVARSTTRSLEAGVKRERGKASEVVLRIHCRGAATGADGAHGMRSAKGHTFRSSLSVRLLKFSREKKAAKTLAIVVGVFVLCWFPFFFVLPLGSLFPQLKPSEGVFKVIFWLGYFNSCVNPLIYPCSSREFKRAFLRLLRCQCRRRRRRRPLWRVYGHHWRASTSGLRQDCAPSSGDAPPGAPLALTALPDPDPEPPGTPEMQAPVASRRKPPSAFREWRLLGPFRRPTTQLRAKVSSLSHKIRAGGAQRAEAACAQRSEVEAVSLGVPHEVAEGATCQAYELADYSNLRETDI

[12] = target: Sodium-dependent dopamine transporter (Homo sapiens) (UniProt Q01959); assay: Displacement of [125I]RTI-55 from full length recombinant human dopamine transporter expressed in CHO-S cells assessed as residual binding level for radioligand at 10 uM after 180 mins by radiometric scintillation analysis relative to control; format: cell-based
Chain of Sodium-dependent dopamine transporter (Homo sapiens) (Q01959 whole entry): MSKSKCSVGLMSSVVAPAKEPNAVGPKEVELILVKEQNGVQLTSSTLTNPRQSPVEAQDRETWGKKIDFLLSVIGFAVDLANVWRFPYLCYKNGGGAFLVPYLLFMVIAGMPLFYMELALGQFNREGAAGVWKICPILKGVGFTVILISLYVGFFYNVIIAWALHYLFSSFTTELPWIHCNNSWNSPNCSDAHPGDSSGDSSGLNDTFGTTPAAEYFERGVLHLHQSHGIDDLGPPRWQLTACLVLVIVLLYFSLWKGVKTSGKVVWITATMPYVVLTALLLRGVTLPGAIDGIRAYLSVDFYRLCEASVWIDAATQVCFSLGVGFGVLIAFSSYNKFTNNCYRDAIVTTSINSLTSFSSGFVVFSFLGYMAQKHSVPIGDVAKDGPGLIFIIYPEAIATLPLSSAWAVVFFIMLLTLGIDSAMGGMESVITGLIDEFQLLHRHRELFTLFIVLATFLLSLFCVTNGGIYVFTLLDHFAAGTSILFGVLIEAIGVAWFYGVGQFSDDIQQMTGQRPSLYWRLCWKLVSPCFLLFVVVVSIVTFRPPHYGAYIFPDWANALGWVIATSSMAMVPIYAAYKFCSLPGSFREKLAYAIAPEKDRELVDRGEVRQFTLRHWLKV

[13] = target: 5-hydroxytryptamine receptor 1A (Homo sapiens) (UniProt P08908); assay: Displacement of [3H]-8-OH-DPAT from full length recombinant human 5HT1A receptor expressed in CHO-K1 cells assessed as residual binding level for radioligand at 10 uM incubated for 60 mins by radiometric scintillation analysis relative to control; format: cell-based
Chain of 5-hydroxytryptamine receptor 1A (Homo sapiens) (P08908 whole entry): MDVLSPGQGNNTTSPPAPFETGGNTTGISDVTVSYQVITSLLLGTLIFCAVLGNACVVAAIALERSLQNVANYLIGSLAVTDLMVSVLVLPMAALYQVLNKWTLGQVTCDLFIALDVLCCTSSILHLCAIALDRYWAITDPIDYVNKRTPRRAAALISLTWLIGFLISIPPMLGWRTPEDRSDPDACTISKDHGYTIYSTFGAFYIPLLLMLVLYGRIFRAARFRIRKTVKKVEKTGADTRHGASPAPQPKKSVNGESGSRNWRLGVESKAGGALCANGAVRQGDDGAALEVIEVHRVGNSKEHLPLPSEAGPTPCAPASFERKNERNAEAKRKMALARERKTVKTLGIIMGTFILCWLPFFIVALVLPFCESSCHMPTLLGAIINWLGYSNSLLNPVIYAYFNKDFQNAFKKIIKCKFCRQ

Rattus norvegicus [14] = species: Rattus norvegicus; assay: Displacement of [35S] dATPalphaS from P2Y receptor in Wistar rat brain at 10 uM incubated for 180 mins by radiometric scintillation analysis relative to control; format: tissue-based
[15] = target: Adenosine receptor A2a (Homo sapiens) (UniProt P29274); assay: Displacement of [3H]CGS-21680 from full length recombinant human A2A receptor expressed in HEK293 cells assessed as residual binding level for radioligand at 10 uM measured after 90 mins radiometric scintillation analysis relative to control; format: cell-based
Chain of Adenosine receptor A2a (Homo sapiens) (P29274 whole entry): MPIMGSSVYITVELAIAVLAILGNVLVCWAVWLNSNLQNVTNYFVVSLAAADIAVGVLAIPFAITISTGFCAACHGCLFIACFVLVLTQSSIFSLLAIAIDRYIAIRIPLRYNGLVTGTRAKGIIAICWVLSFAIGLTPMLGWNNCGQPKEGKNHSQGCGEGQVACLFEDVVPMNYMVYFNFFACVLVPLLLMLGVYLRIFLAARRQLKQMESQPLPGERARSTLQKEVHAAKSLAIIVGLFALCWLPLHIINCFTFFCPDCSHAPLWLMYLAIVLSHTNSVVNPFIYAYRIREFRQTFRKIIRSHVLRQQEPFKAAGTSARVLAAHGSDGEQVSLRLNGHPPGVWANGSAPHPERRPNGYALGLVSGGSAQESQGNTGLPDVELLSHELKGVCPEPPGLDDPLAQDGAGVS

[16] = target: D(4) dopamine receptor (Homo sapiens) (UniProt P21917); assay: Displacement of [3H]spiperone from full length recombinant human D4.4 receptor expressed in CHO cells assessed as residual binding level for radioligand at 10 uM incubated for 120 mins by radiometric scintillation analysis relative to control; format: cell-based
Chain of D(4) dopamine receptor (Homo sapiens) (P21917 whole entry): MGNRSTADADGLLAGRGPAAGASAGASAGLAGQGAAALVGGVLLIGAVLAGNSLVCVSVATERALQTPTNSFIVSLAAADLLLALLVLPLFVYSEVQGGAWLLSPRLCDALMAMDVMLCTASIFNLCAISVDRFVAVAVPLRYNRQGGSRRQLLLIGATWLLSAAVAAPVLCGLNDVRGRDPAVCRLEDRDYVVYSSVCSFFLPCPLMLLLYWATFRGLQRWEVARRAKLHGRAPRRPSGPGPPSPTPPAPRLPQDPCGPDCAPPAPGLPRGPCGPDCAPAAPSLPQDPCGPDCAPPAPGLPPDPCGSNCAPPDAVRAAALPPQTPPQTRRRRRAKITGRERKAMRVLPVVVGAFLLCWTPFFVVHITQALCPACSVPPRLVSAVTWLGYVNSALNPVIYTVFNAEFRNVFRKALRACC

[17] = target: Histamine H3 receptor (Homo sapiens) (UniProt Q9Y5N1); assay: Displacement of [3H]-N-alpha-Methylhistamine from full length recombinant human recombinant Histamine H3 receptor expressed in CHO-K1 cells assessed as residual binding level for radioligand at 10 uM incubated for 120 mins by scintillation counting analysis relative to control; format: cell-based
Chain of Histamine H3 receptor (Homo sapiens) (Q9Y5N1 whole entry): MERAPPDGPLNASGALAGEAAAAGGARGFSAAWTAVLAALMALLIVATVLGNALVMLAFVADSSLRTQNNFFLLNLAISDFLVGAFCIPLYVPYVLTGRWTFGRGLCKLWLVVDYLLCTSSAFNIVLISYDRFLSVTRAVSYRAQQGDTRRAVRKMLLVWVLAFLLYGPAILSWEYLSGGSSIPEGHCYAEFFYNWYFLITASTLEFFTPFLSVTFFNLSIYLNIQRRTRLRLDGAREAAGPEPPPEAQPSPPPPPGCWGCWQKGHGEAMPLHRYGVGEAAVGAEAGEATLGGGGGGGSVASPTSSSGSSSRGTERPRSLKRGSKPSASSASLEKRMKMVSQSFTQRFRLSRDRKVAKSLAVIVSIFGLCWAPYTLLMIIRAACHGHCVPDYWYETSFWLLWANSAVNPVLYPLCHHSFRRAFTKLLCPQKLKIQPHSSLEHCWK

[18] = target: Muscarinic acetylcholine receptor M2 (Homo sapiens) (UniProt P08172); assay: Displacement of [3H]N-Methylscopolamine from full length human recombinant muscarinic M2 receptor expressed in CHO-K1 cells assessed as residual binding level for radioligand at 10 uM measured after 120 mins by radiometric scintillation analysis relative to control; format: cell-based
[19] = target: Muscarinic acetylcholine receptor M3 (Homo sapiens, UniProt P20309); assay: Displacement of [3H]N-Methylscopolamine from full length human recombinant muscarinic M3 receptor expressed in CHOK1 cells assessed as residual binding level for radioligand at 10 uM measured after 120 mins by radiometric scintillation analysis relative to control; format: cell-based; details: CHO-K1
Chain of Muscarinic acetylcholine receptor M3 (P20309 whole entry, looked up): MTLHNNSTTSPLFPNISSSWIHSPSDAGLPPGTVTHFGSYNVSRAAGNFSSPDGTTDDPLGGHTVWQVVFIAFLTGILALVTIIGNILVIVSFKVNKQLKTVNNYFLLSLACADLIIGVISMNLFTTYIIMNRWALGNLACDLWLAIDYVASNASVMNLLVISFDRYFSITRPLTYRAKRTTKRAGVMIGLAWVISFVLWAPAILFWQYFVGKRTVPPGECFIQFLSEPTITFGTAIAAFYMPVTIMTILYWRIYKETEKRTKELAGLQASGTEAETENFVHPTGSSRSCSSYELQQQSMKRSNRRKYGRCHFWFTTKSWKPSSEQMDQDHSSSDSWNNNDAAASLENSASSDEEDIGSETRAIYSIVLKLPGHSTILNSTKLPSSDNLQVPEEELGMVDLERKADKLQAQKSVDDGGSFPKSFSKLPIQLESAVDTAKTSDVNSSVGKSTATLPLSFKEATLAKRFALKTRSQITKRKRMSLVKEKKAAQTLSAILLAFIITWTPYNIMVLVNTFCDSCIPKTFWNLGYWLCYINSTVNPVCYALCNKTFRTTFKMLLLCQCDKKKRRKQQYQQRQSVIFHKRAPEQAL

[20] = target: Kappa-type opioid receptor (Homo sapiens) (UniProt P41145); assay: Displacement of [3H]-Diprenorphine from recombinant full length human kappa opioid receptor expressed in HEK293 cells assessed as residual binding level for radioligand at 10 uM incubated for 60 mins by scintillation counting analysis relative to control; format: cell-based
Chain of Kappa-type opioid receptor (Homo sapiens) (P41145 whole entry): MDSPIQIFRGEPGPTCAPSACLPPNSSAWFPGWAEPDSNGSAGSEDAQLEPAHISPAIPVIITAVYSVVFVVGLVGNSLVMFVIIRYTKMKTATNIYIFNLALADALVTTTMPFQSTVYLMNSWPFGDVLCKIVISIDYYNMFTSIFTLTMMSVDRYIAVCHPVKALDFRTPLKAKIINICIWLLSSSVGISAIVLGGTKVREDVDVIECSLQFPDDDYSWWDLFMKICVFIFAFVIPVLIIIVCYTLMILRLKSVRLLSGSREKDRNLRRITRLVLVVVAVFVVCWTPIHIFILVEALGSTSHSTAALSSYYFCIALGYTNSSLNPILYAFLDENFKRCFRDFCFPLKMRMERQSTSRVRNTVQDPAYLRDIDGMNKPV

Mus musculus = species: Mus musculus; assay: Displacement of [3H]-PDBu from phorbol ester receptor in ICR mouse brain assessed as residual binding level for radioligand at 10 uM incubated for 60 mins by scintillation counting analysis relative to control; format: tissue-based
[21] = target: 5-hydroxytryptamine receptor 3A (Homo sapiens) (UniProt P46098); assay: Displacement of [3H]GR-65630 from full length human recombinant 5HT3 receptor expressed in HEK293 cells assessed as residual binding level for radioligand at 10 uM measured after 60 mins by radiometric scintillation analysis relative to control; format: cell-based
[22] = target: Sodium-dependent serotonin transporter (Homo sapiens) (UniProt P31645); assay: Displacement of [3H]paroxetine from full length recombinant human SET expressed in HEK293 cells assessed as residual binding level for radioligand at 10 uM after 60 mins by radiometric scintillation analysis relative to control; format: cell-based
Chain of Sodium-dependent serotonin transporter (Homo sapiens) (P31645 whole entry, looked up): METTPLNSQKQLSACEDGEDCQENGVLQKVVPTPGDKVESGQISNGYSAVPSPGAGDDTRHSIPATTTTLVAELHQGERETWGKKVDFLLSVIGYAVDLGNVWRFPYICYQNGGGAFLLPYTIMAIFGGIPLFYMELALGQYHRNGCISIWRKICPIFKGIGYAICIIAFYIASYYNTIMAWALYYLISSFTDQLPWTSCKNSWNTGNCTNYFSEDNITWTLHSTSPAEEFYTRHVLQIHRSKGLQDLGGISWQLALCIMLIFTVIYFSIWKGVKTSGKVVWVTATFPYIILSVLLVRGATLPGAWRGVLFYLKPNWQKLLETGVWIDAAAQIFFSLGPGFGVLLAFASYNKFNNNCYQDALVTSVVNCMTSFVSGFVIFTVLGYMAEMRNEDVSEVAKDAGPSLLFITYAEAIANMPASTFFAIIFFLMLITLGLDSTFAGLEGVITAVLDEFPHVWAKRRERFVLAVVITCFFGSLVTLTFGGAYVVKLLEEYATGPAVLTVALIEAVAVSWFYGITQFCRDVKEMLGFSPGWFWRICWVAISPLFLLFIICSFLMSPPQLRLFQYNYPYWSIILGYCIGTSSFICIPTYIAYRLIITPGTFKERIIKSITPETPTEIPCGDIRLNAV

[23] = target: Sigma non-opioid intracellular receptor 1 (Homo sapiens) (UniProt Q99720); assay: Displacement of [3H]-(+)-pentazocine from human sigma-1 receptor in human T lymphocyte Jurkat cell membrane assessed as residual binding level for radioligand at 10 uM incubated for 120 mins by liquid scintillation counting method relative to control; format: tissue-based
[24] = target: Glutamate NMDA receptor (Rattus norvegicus) (UniProt P35439+Q00959+Q00960+Q00961+Q62645+Q8VHN2+Q9R1M7); assay: Displacement of [3H]MDL 105,519 from glutamate NMDA receptor glycine binding site in Wistar rat cerebral cortical membranes assessed as residual binding level for radioligand at 10 uM incubated for 30 mins by radiometric scintillation analysis relative to control; format: tissue-based; details: Cerebral cortex

SMILES: COc1nnc2sc(C(=O)NC3CN(c4ncc(C(F)(F)F)cn4)C3)c(N)c2c1C
- %max [1]: 71%
- fraction unbound [2]: 0.039
- Kp uu at 0.25 h [3]: 0.73
- EC50 [4]: 0.068 µM
- EC50 [5]: > 30 µM
- EC50 [6]: > 30 µM
- Activity (Rattus norvegicus [7]): 54%
- Activity (Rattus norvegicus [8]): 44%
- Kp at 1.5 h [9]: 0.16
- Activity [10]: > 50%
- Activity [11]: > 50%
- Activity [12]: > 50%
- Activity [13]: > 50%
- Activity (Rattus norvegicus [14]): > 50%
- Activity [15]: > 50%
- Activity [16]: > 50%
- Activity [17]: > 50%
- Activity [18]: > 50%
- Activity [19]: > 50%
- Activity [20]: > 50%
- Activity (Mus musculus): > 50%
- Activity [21]: > 50%
- Activity [22]: > 50%
- Activity [23]: > 50%
- Activity [24]: > 50%
